Measurements published in US11833159B2, “Non-hormonal steroid modulators of NF-kB for treatment of disease” (ReveraGen BioPharma, Inc., priority 2008, dated 2023).

How the values were obtained:
[1] = In vivo mdx mouse model of dystrophy: body weight and muscle mass; conditions: 5 mg/kg/day per oral in feed, at 33.8 weeks age, P<0.05
Procedure: (§1) Separate groups (n=12-14) of mdx mice were treated with prednisolone (5 mg/kg/day; per oral in feed), Example 1 (20 and 40 mg/kg/day; per oral in feed) and Example 2 (20 and 40 mg/kg/day; per oral in feed) for 3 months. All mice underwent 30 min biweekly treadmill exercise during the treatment duration to unmask the mild disease phenotype of mdx mouse model.

mdx mice [2] = assay: mdx mouse model: histological evaluation (H&E) of gastrocnemius muscle; assay type: in vivo; conditions: 3 months per oral in feed, Examples 20 and 40 mg/kg/day; for Degeneration of skeletal muscle (H&E histology) / Regeneration / regenerating muscle fibers (H&E histology): prednisolone 5 mg/kg/day; for Inflammation of skeletal muscle (H&E histology): in comparison to untreated and prednisolone treated mdx mice
Procedure: as §1
Hematoxylin and Eosin staining of gastrocnemius muscle of untreated mdx mice show significant degeneration and inflammation.

mdx mice [3] = assay: mdx mouse model: in vitro force contractions of EDL muscle; assay type: in vivo; conditions: 5 mg/kg/day per oral in feed
Procedure: as §1
The distal tendon of the extensor digitorum longus (EDL) muscle was tied securely to the lever arm of a servomotor/force transducer (model 305B, Aurora Scientific, Richmond Hill, ON, Canada) and the proximal tendon to a tissue clamp. Muscles were stimulated between two platinum electrodes. […] The muscle length was then measured with calipers and after removal of the muscle from the bath the mass of the muscle was determined. For each muscle, the optimum fiber length (Lf) was calculated by multiplying Lo by a previously determined Lf/Lo ratio of 0.45. Total muscle fiber cross-sectional area was determined by dividing the wet mass by the product of Lf and the density of mammalian skeletal muscle (1.06 mg/mm^3). Maximum isometric specific force (sPo) was determined by dividing Po by the total muscle fiber cross-sectional area.

Row | SMILES | Body weight versus untreated mice [1] | Degeneration of skeletal muscle (H&E histology) (mdx mice [2]) | Regeneration / regenerating muscle fibers (H&E histology) (mdx mice [2]) | Specific force of EDL muscle, difference to untreated group (mdx mice [3]) | Inflammation of skeletal muscle (H&E histology) (mdx mice [2])
1 | C[C@]12C=CC(=O)C=C1CC[C@@H]1[C@@H]2[C@@H](O)C[C@@]2(C)[C@H]1CC[C@]2(O)C(=O)CO [prednisolone, reference compound] | significantly lower body weight | appeared to increase degeneration | decrease in regeneration | no statistically significant (P<0.05) difference | 
2 | C[C@]12CCC(=O)C=C1CCC1C2=CC[C@@]2(C)C1CC[C@]2(O)C(=O)CO (stereo partly drawn) [Example 1, (10S,13S,17R)-17-hydroxy-17-(2-hydroxyacetyl)-10,13-dimethyl-6,7,8,10,12,13,14,15,16,17-decahydro-1H-cyclopenta[a]phenanthren-3(2H)-one] |  | significant decrease | increase in regenerating muscle fibers |  | significant decrease
3 | C[C@]12C=CC(=O)C=C1CCC1C2=CC[C@@]2(C)C1CC[C@]2(O)C(=O)CO (stereo partly drawn) [Example 2, (10S,13S,17R)-17-hydroxy-17-(2-hydroxyacetyl)-10,13-dimethyl-6,7,8,10,12,13,14,15,16,17-decahydro-3H-cyclopenta[a]phenanthren-3-one] |  | significant decrease | increase in regenerating muscle fibers |  | significant decrease
